Test results reported in US20050130134A1, “Means and methods for monitoring non-nucleoside reverse transcriptase inhibitor antiretroviral therapy and guiding therapeutic decisions in the treatment HIV-AIDS” (ViroLogic, Inc., priority 2000, published 2005).
Several values for one entry are separate records, joined by “and”; a condition that tells them apart may be missing. Identical values can stand only once. Entries after “also recorded” stand apart in the source; their conditions may differ.

Key:
[1] = test system: HIV-1 reverse transcriptase Y188C (Y188C-RTV); assay: Phenotypic susceptibility assay, site directed mutant Y188C-RTV; format: cell-based; details: >1 loss of susceptibility
Method: (§1) Resistance tests were carried out with resistance test vectors using two host cell types. Resistance test vector viral particles were produced by a first host cell (the resistance test vector host cell) that was prepared by transfecting a packaging host cell with the resistance test vector and the packaging expression vector. The resistance test vector viral particles were then used to infect a second host cell (the target host cell) in which the expression of the indicator gene is measured.
(§2) The resistance test vectors containing a functional luciferase gene cassette were constructed and host cells were transfected with the resistance test vector DNA. The resistant test vectors contained patient-derived reverse transcriptase and protease sequences that were either susceptible or resistant to the antiretroviral agents, such as nucleoside reverse transcriptase inhibitors, non-nucleoside reverse transcriptase inhibitors and protease inhibitors. The resistance test vector viral particles produced by transfecting the resistance test vector DNA into host cells, either in the presence or absence of protease inhibitors, were used to infect target host cells grown either in the absence of NRTI or NNRTI or in the presence of increasing concentrations of the drug. […] The IC50 values were determined by plotting percent drug inhibition vs. log10 drug concentration.
(§3) Host cells were seeded in 10-cm-diameter dishes and were transfected several days after plating with resistance test vector plasmid DNA and the envelope expression vector. […] HIV capsid protein (p24) levels in the harvested cell culture media were determined by an EIA method as described by the manufacturer (SIAC; Frederick, Md.). […] The inhibitory effect of the drug was determined using the following equation: % luciferase inhibition=1-(RLUluc[drug]÷RLUluc)×100 where RLUluc [drug] is the relative light unit of luciferase activity in infected cells in the presence of drug and RLUluc is the Relative Light Unit of luciferase activity in infected cells in the absence of drug. […]

[2] = test system: HIV-1 reverse transcriptase E138A (E138A-RTV); assay: Phenotypic susceptibility assay, site directed mutant E138A-RTV; format: cell-based; details: >1 loss of susceptibility
Method: as §1, §2, §3

[3] = test system: HIV-1 reverse transcriptase G190S (G190S-RTV); assay: Phenotypic susceptibility assay, site directed mutant G190S-RTV; format: cell-based; details: for change in susceptibility: G190S-RTV versus wild type reference RTV; for fold change in susceptibility compared to wild type control RTV: G190S-RTV, >1 loss, <1 increased susceptibility
Method: as §1
(§4) The resistance test vectors containing a functional luciferase gene cassette were constructed and host cells were transfected with the resistance test vector DNA. The resistant test vectors contained patient-derived reverse transcriptase and protease sequences that were either susceptible or resistant to the antiretroviral agents, such as nucleoside reverse transcriptase inhibitors, non-nucleoside reverse transcriptase inhibitors and protease inhibitors. The resistance test vector viral particles produced by transfecting the resistance test vector DNA into host cells, either in the presence or absence of protease inhibitors, were used to infect target host cells grown either in the absence of NRTI or NNRTI or in the presence of increasing concentrations of the drug. The amount of luciferase activity produced in infected target host cells in the presence of drug was compared to the amount of luciferase produced in infected target host cells in the absence of drug. Drug resistance was measured as the amount of drug required to inhibit by 50% the luciferase activity detected in the absence of drug (inhibitory concentration 50%, IC50). The IC50 values were determined by plotting percent drug inhibition vs. log10 drug concentration.
Host cells were seeded in 10-cm-diameter dishes and were transfected several days after plating with resistance test vector plasmid DNA and the envelope expression vector. Transfections were performed using a calcium-phosphate precipitation procedure. The cell culture media containing the DNA precipitate was replaced with fresh medium, from one to 24 hours, after transfection. Cell culture media containing resistance test vector viral particles was harvested one to four days after transfection and was passed through a […] filter before being stored at −80° C. HIV capsid protein (p24) levels in the harvested cell culture media were determined by an EIA method as described by the manufacturer (SIAC; Frederick, Md.). Before infection, target cells (293 and 293/T) were plated in cell culture media. Control infections were performed using cell culture media from mock transfections (no DNA) or transfections containing the resistance test vector plasmid DNA without the envelope expression plasmid. One to three or more days after infection the media was removed and cell lysis buffer (Promega) was added to each well. […] The inhibitory effect of the drug was determined using the following equation: % luciferase inhibition=1-(RLUluc[drug]÷RLUluc)×100 where RLUluc [drug] is the relative light unit of luciferase activity in infected cells in the presence of drug and RLUluc is the Relative Light Unit of luciferase activity in infected cells in the absence of drug. IC50 values were obtained from the sigmoidal curves that were generated from the data by plotting the percent inhibition of luciferase activity vs. the log10 drug concentration. […]

[4] = test system: HIV-1 reverse transcriptase G190A (G190A-RTV); assay: Phenotypic susceptibility assay, site directed mutant G190A-RTV; format: cell-based; details: for change in susceptibility: G190A-RTV versus wild type reference RTV
Method: as §1, §4
as §3, with “vector. Transfections were performed using a calcium-phosphate precipitation procedure. The cell culture media containing the DNA precipitate was replaced with fresh medium, from one to 24 hours, after transfection.” for “vector.”

[5] = test system: HIV-1 reverse transcriptase V106A (V106A-RTV); assay: Phenotypic susceptibility assay, site directed mutant V106A-RTV; format: cell-based; details: >1 loss of susceptibility
Method: as §1, §2, §3

[6] = test system: HIV-1 reverse transcriptase V189L (V189L-RTV); assay: Phenotypic susceptibility assay, site directed mutant V189L-RTV; format: cell-based; details: >1 loss of susceptibility
Method: as §1, §2, §3

[7] = test system: HIV-1 reverse transcriptase V106A + V189L (V106A-V189L-RTV); assay: Phenotypic susceptibility assay, site directed mutant V106A-V189L-RTV; format: cell-based; details: >1 loss of susceptibility
Method: as §1, §2, §3

[8] = test system: HIV-1 reverse transcriptase Y181I (Y181I-RTV); assay: Phenotypic susceptibility assay, site directed mutant Y181I-RTV; format: cell-based; details: >1 loss of susceptibility
Method: as §1, §2, §3

[9] = test system: HIV-1 reverse transcriptase K101E + G190S (K101E-G190S-RTV); assay: Phenotypic susceptibility assay, site directed mutant K101E-G190S-RTV; format: cell-based
Method: as §1, §4
Host cells were seeded in 10-cm-diameter dishes and were transfected several days after plating with resistance test vector plasmid DNA and the envelope expression vector. Transfections were performed using a calcium-phosphate precipitation procedure. The cell culture media containing the DNA precipitate was replaced with fresh medium, from one to 24 hours, after transfection. Cell culture media containing resistance test vector viral particles was harvested one to four days after transfection and was passed through a […] filter before being stored at −80° C. HIV capsid protein (p24) levels in the harvested cell culture media were determined by an EIA method as described by the manufacturer (SIAC; Frederick, Md.). Before infection, target cells (293 and 293/T) were plated in cell culture media. Control infections were performed using cell culture media from mock transfections (no DNA) or transfections containing the resistance test vector plasmid DNA without the envelope expression plasmid. One to three or more days after infection the media was removed and cell lysis buffer (Promega) was added to each well. […] The inhibitory effect of the drug was determined using the following equation: % luciferase inhibition=1-(RLUluc[drug]÷RLUluc)×100 where RLUluc [drug] is the relative light unit of luciferase activity in infected cells in the presence of drug and RLUluc is the Relative Light Unit of luciferase activity in infected cells in the absence of drug. IC50 values were obtained from the sigmoidal curves that were generated from the data by plotting the percent inhibition of luciferase activity vs. the log10 drug concentration.
Mutations may be incorporated alone and/or in combination with other known drug resistance mutations that are thought to modulate the susceptibility of HIV to a certain drug or class of drugs. Mutations are introduced into the resistance test vector through any of the widely known methods for site-directed mutagenesis. In one embodiment of this invention the mega-primer PCR method for site-directed mutagenesis is used.

[10] = test system: HIV-1 reverse transcriptase K101E + G190A (K101E-G190A-RTV); assay: Phenotypic susceptibility assay, site directed mutant K101E-G190A-RTV; format: cell-based; details: >1 loss of susceptibility
Method: as §1, §2, §3

[11] = test system: HIV-1 reverse transcriptase F227L (F227L-RTV); assay: Phenotypic susceptibility assay, site directed mutant F227L-RTV; format: cell-based; details: >1 loss, <1 increased susceptibility
Method: as §1, §2, §3

[12] = test system: RTV-B clone 1 (RT A98G, G190S); assay: Phenotypic susceptibility assay, RTV-B clone 1 (patient B); format: cell-based, HIV-1; details: >1 loss, <1 increased susceptibility
Method: as §1, §2, §3

[13] = test system: HIV-1 reverse transcriptase P236L plus K103N, Y181C or both; assay: Phenotypic susceptibility assay, P236L with K103N, Y181C or K103N+Y181C; format: cell-based; details: P236L added to K103N, Y181C or K103N+Y181C versus corresponding RTV lacking P236L
Method: (§5) Transfections were performed using a calcium-phosphate precipitation procedure. […] Cell lysates were assayed for luciferase activity (FIG. 3). […] The drug inhibition curves are shown in (FIG. 3).
Resistance test vectors were constructed containing the P236L mutation alone and in combination with other known drug resistance mutations (K103N, Y181C) that are known to modulate the susceptibility of HIV-1 to NNRTIs. […] The P236L mutation was also introduced into a RTV containing mutations at K103N, Y181C or both (K103N+Y181C).

[14] = test system: HIV-1 reverse transcriptase Y188L (Y188L-RTV); assay: Phenotypic susceptibility assay, site directed mutant Y188L-RTV; format: cell-based; details: >1 loss of susceptibility
Method: as §1, §2, §3

[15] = test system: HIV-1 reverse transcriptase Y181C + F227L (Y181C-F227L-RTV); assay: Phenotypic susceptibility assay, site directed mutant Y181C-F227L-RTV; format: cell-based; details: >1 loss, <1 increased susceptibility
Method: as §1, §2, §3

[16] = test system: RTV-1033 patient virus (RT V106A, V189L, F227L); assay: Phenotypic susceptibility assay, RTV-1033 (patient 98-1033); format: cell-based, HIV-1
Method: as §5

[17] = >1 loss, <1 increased susceptibility

SMILES | fold change in susceptibility compared to wild type control RTV [1] [fold] | fold change in susceptibility compared to wild type control RTV [2] [fold] | change in susceptibility [3] | fold change in susceptibility compared to wild type control RTV [3] [fold] | change in susceptibility [4] | change in susceptibility ([4]; listed as delviridine) | fold change in susceptibility compared to wild type control RTV [5] [fold] | fold change in susceptibility compared to wild type control RTV [6] [fold] | fold change in susceptibility compared to wild type control RTV [7] [fold] | fold change in susceptibility compared to wild type control RTV [8] [fold] | fold change in susceptibility compared to wild type control RTV ([9]; >1 loss of susceptibility) | fold change in susceptibility compared to wild type control RTV [9, 17] [fold] | fold change in susceptibility compared to wild type control RTV [10] | fold change in susceptibility compared to wild type control RTV [11] [fold] | fold change in susceptibility [12] [fold] | change in susceptibility [13] | fold change in susceptibility compared to wild type control RTV [14] | fold change in susceptibility compared to wild type control RTV [15] [fold] | decrease in susceptibility [16] | fold change in susceptibility compared to wild type control RTV ([4]; G190A-RTV) [fold]
CC(C)Nc1cccnc1N1CCN(C(=O)c2cc3cc(NS(C)(=O)=O)ccc3[nH]2)CC1 [delavirdine] | 3 | 1.6 | slightly more susceptible; also recorded: increase; also recorded: slightly increase susceptibility | 0.5 | slightly more susceptible; also recorded: increase; also recorded: slightly increase susceptibility | increased susceptibility | 5 | 1.8 | 3 | 20 | 1.4 fold | 0.5 | 2 fold | 0.03 | 0.55 | less susceptible (more resistant); also recorded: additional reduction; also recorded: severe resistance | 9 fold | 0.89 | 30 fold | 
O=C1Nc2ccc(Cl)cc2[C@@](C#CC2CC2)(C(F)(F)F)O1 [efavirenz] | 20 | 1.4 |  | 8 |  |  | 1.7 | 1.3 | 1 | 1.4 | greater than 250 fold | 7.6 | 120 fold | 0.48 | 250 | restores a significant portion of the loss of susceptibility | 109 fold and 110 fold | 0.99 | 200 fold | 8
Cc1ccnc2c1NC(=O)c1cccnc1N2C1CC1 [nevirapine] | 30 | 1.3 | markedly less susceptible; also recorded: decrease; also recorded: greatly reduce susceptibility | 75 | markedly less susceptible; also recorded: decrease; also recorded: greatly reduce susceptibility |  | 60 | 1.3 | 50 | 740 | greater than 800 fold | 75 | greater than 800 fold | 3 | 640 | did not significantly alter; also recorded: little or no additional reduction; also recorded: no effect | greater than 800 fold | 285 | greater than 800 fold | 
